Assay results taken from patent US8937080B2, “Pyrimidine substituted macrocyclic HCV inhibitors” (Medivir AB, priority 2007, dated 2015).
Read-outs that look alike come from different tables or passages of the source.

Tests used:
[1] = rcm bond, 14-membered ring, Hoveyda-Grubbs II, DCE, 16.0 h
[2] = from C=CCCCCN(C)C(=O)C1CC(Oc2ccnc(-c3ccccc3)n2)CC1C(=O)NC1(C(=O)NS(=O)(=O)C2CC2)CC1C=C; rcm bond; 14-membered ring; Hoveyda-Grubbs II; 150.0 °C; 0.17 h
[3] = tested on: HCV replicons (wild type NS3-NS5B regions of HCV type 1b) in Huh-7 luc/neo cells; experiment: Replicon assay (Huh-Luc cells, luciferase readout); type: cell-based; settings: Hepatitis C virus, Huh-7, 72 h, incubation of three days, luciferase activity
Excerpt: The compounds of formula (I) were examined for activity in the inhibition of HCV RNA replication in a cellular assay. […] The cellular assay was based on a bicistronic expression construct, as described by Lohmann et al. (1999) Science vol. 285 pp. 110-113 with modifications described by Krieger et al. (2001) Journal of Virology 75: 4614-4624, in a multi-target screening strategy. In essence, the method was as follows.
The assay utilized the stably transfected cell line Huh-7 luc/neo (hereafter referred to as Huh-Luc). This cell line harbors an RNA encoding a bicistronic expression construct comprising the wild type NS3-NS5B regions of HCV type 1b translated from an Internal Ribosome Entry Site (IRES) from encephalomyocarditis virus (EMCV), preceded by a reporter portion (FfL-luciferase), and a selectable marker portion (neo^R, neomycine phosphotransferase). The construct is bordered by 5′ and 3′ NTRs (non-translated regions) from HCV type 1b. Continued culture of the replicon cells in the presence of G418 (neo^R) is dependent on the replication of the HCV RNA. The stably transfected replicon cells that express HCV RNA, which replicates autonomously and to high levels, encoding inter alia luciferase, are used for screening the antiviral compounds.
The replicon cells were plated in 384 well plates in the presence of the test and control compounds which were added in various concentrations. Following an incubation of three days, HCV replication was measured by assaying luciferase activity (using standard luciferase assay substrates and reagents and a Perkin Elmer ViewLux™ ultraHTS microplate imager). Replicon cells in the control cultures have high luciferase expression in the absence of any inhibitor. The inhibitory activity of the compound on luciferase activity was monitored on the Huh-Luc cells, enabling a dose-response curve for each test compound. EC50 values were then calculated, which value represents the amount of the compound required to decrease by 50% the level of detected luciferase activity, or more specifically, the ability of the genetically linked HCV replicon RNA to replicate.

[4] = biological target: HCV NS3/4A protease complexes (full-length hepatitis C NS3 protease enzyme with NS4A cofactor) (Hepatitis C virus genotype 1a, UniProt P27958); experiment: Inhibition assay (enzymatic assay, depsipeptide substrate hydrolysis); type: biochemical; settings: enzyme 1 nM, 25 μM NS4A cofactor, 0.5 μM substrate, 30° C., competitive inhibition model
HCV NS3/4A protease complexes (full-length hepatitis C NS3 protease enzyme with NS4A cofactor), sequence (P27958 1027-1657, other chains not shown): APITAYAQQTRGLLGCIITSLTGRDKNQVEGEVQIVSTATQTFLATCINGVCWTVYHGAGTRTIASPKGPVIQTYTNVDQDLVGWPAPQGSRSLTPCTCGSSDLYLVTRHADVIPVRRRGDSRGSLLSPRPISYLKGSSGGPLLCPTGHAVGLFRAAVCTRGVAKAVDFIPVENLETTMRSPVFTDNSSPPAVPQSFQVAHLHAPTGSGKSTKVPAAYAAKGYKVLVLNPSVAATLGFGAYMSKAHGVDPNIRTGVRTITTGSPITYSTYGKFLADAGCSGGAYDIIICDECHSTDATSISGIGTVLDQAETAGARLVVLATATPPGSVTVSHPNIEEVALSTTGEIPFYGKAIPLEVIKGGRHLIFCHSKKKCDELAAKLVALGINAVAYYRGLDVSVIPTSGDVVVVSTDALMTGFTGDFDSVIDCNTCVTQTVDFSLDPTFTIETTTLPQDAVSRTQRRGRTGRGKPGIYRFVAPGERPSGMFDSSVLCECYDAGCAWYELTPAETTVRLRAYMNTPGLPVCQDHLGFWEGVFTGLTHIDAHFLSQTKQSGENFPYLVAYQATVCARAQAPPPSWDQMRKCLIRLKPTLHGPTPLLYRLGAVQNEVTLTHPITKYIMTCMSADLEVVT
Protocol: The aim of this in vitro assay is to measure the inhibition of HCV NS3/4A protease complexes by the compounds of the present invention. This assay provides an indication of how effective compounds of the present invention would be in inhibiting HCV NS3/4A proteolytic activity.
The inhibition of full-length hepatitis C NS3 protease enzyme was measured essentially as described in Poliakov, 2002 Prot Expression & Purification 25 363 371. Briefly, the hydrolysis of a depsipeptide substrate, Ac-DED(Edans)EEAbuψ[COO]ASK(Dabcyl)-NH2 (AnaSpec, San José, USA), was measured spectrofluorometrically in the presence of a peptide cofactor, KKGSVVIVGRIVLSGK (Åke Engström, Department of Medical Biochemistry and Microbiology, Uppsala University, Sweden). [Landro, 1997 #Biochem 36 9340-9348]. The enzyme (1 nM) was incubated in 50 mM HEPES, pH 7.5, 10 mM DTT, 40% glycerol, 0.1% n-octyl-D-glucoside, with 25 μM NS4A cofactor and inhibitor at 30° C. for 10 min, whereupon the reaction was initiated by addition of 0.5 μM substrate. Inhibitors were dissolved in DMSO, sonicated for 30 sec. and vortexed. The solutions were stored at −20° C. between measurements.
The final concentration of DMSO in the assay sample was adjusted to 3.3%. The rate of hydrolysis was corrected for inner filter effects according to published procedures.
[Liu, 1999 Analytical Biochemistry 267 331-335]. Ki values were estimated by non-linear regression analysis (GraFit, Erithacus Software, Staines, MX, UK), using a model for competitive inhibition and a fixed value for Km (0.15 μM). A minimum of two replicates was performed for all measurements.

Question: With `CCOC(=O)C12CC1C=CCCCCN(C)C(=O)C1CC(Oc3cc(-c4ccccc4)nc(-c4ccccc4)n3)CC1C(=O)N2` (stereo not drawn) as the compound, how does the ring closure, isolated yield ([1]; from C=CCCCCN(C)C(=O)C1CC(Oc2cc(-c3ccccc3)nc(-c3ccccc3)n2)CC1C(=O)NC1(C(=O)OCC)CC1C=C, 1.66 mM) read?
Answer: The ring closure, isolated yield was 76%.

Question: Which ring closure, isolated yield ([1]; from C=CCCCCN(C)C(=O)C1CC(Oc2cc(-c3ccccc3)nc(OC)n2)CC1C(=O)NC1(C(=O)OCC)CC1C=C, 1.83 mM) does the source give for `CCOC(=O)C12CC1C=CCCCCN(C)C(=O)C1CC(Oc3cc(-c4ccccc4)nc(OC)n3)CC1C(=O)N2` (stereo not drawn) here?
Answer: Its ring closure, isolated yield is 70%.

Question: With `CCOC(=O)C12CC1C=CCCCCN(C)C(=O)C1CC(Oc3cc(OC)nc(OC)n3)CC1C(=O)N2` (stereo not drawn) as the compound, how does the ring closure, isolated yield ([1]; from C=CCCCCN(C)C(=O)C1CC(Oc2cc(OC)nc(OC)n2)CC1C(=O)NC1(C(=O)OCC)CC1C=C, 1.91 mM) read?
Answer: Its ring closure, isolated yield is 49%.

Question: For `CN1CCCCC=CC2CC2(C(=O)NS(=O)(=O)C2CC2)NC(=O)C2CC(Oc3ccnc(-c4ccccc4)n3)CC2C1=O` (stereo not drawn) [Example 10, Cyclopropanesulfonic acid [13-methyl-2,14-dioxo-17-(2-phenylpyrimidin-4-yloxy)-3,13-diaza-tricyclo[13.3.0.0*4,6*]octadec-7-ene-4-carbonyl]-amide], which ring closure, yield after HPLC [2] is on record?
Answer: Its ring closure, yield after HPLC is 16%.

Question: What about the EC50 [3] of the same compound?
Answer: The EC50 was > 10 µM.

Question: What about the Ki [4] of the same compound?
Answer: The Ki was > 1 µM.
